{"source": "ChEMBL document CHEMBL1201862", "about": "“PubChem BioAssay data set” (2004)", "test_in_all_cases": "inhibition of tumour cell growth, NCI panel, 48 h", "key": {"[1]": {"tested_on": "HCT-116"}, "[2]": {"tested_on": "SW-620"}, "[3]": {"tested_on": "NCI-H226"}, "[4]": {"tested_on": "NCI-H522"}, "[5]": {"tested_on": "NCI-H23"}, "[6]": {"tested_on": "EKVX"}, "[7]": {"tested_on": "HOP-92"}, "[8]": {"tested_on": "RPMI-8226"}, "[9]": {"tested_on": "SR"}, "[10]": {"tested_on": "SK-MEL-2"}, "[11]": {"tested_on": "NCI-H460"}, "[12]": {"tested_on": "A549"}, "[13]": {"tested_on": "DU-145"}, "[14]": {"tested_on": "LOX IMVI"}, "[15]": {"tested_on": "KM12"}, "[16]": {"tested_on": "T47D"}, "[17]": {"tested_on": "UACC-257"}, "[18]": {"tested_on": "UACC-62"}, "[19]": {"tested_on": "SK-MEL-28"}, "[20]": {"tested_on": "BT-549"}, "[21]": {"tested_on": "SF-539"}, "[22]": {"tested_on": "SN12C"}, "[23]": {"tested_on": "A498"}, "[24]": {"tested_on": "SNB-19"}, "[25]": {"tested_on": "HCT-15"}, "[26]": {"tested_on": "ACHN"}, "[27]": {"tested_on": "TK-10"}, "[28]": {"tested_on": "OVCAR-4"}, "[29]": {"tested_on": "SK-OV-3"}, "[30]": {"tested_on": "MOLT-4"}, "[31]": {"tested_on": "SF-268"}, "[32]": {"tested_on": "OVCAR-5"}, "[33]": {"tested_on": "MDA-N"}, "[34]": {"tested_on": "MCF7"}, "[35]": {"tested_on": "SK-MEL-5"}, "[36]": {"tested_on": "OVCAR-8"}, "[37]": {"tested_on": "CAKI-1"}, "[38]": {"tested_on": "SF-295"}, "[39]": {"tested_on": "M14"}, "[40]": {"tested_on": "PC-3"}, "[41]": {"tested_on": "NCI/ADR-RES"}, "[42]": {"tested_on": "COLO 205"}, "[43]": {"tested_on": "786-0"}, "[44]": {"tested_on": "UO-31"}, "[45]": {"tested_on": "CCRF-CEM"}, "[46]": {"tested_on": "HT-29"}, "[47]": {"tested_on": "K562"}, "[48]": {"tested_on": "HCC 2998"}, "[49]": {"tested_on": "U-251"}, "[50]": {"tested_on": "MDA-MB-231"}, "[51]": {"tested_on": "Hs-578T"}, "[52]": {"tested_on": "HOP-62"}, "[53]": {"tested_on": "SNB-75"}, "[54]": {"tested_on": "RXF 393"}, "[55]": {"tested_on": "IGROV-1"}, "[56]": {"tested_on": "MDA-MB-435"}, "[57]": {"tested_on": "OVCAR-3"}, "[58]": {"tested_on": "Malme-3M"}, "[59]": {"tested_on": "HL-60"}}, "note": "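Values below derive from 48-hour exposures of cells grown in 96-well plates, with endpoints linearly interpolated between the two concentrations bracketing the appropriate inhibition level. GI50 is the concentration that inhibits growth by half.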 Active and inactive are the calls of the source. Rule as the data show it: active = GI50 up to about 1.1 µM and inactive = higher."}
{"compound": "COc1cc2cc(C(=O)N3C[C@H](CCl)c4c3cc(N)c3ccccc43)[nH]c2c(OC)c1OC", "values": [{"measurement": "GI50", "setting": "[1]", "result": "6.95 nM (active)"}, {"measurement": "GI50", "setting": "[2]", "result": "23.3 nM (active)"}, {"measurement": "GI50", "setting": "[3]", "result": "9510 nM (inactive)"}, {"measurement": "GI50", "setting": "[4]", "result": "1 nM (active)"}, {"measurement": "GI50", "setting": "[5]", "result": "5 nM (active)"}, {"measurement": "GI50", "setting": "[6]", "result": "10.3 nM (active)"}, {"measurement": "GI50", "setting": "[7]", "result": "48.9 nM (active)"}, {"measurement": "GI50", "setting": "[8]", "result": "27.5 nM (active)"}, {"measurement": "GI50", "setting": "[9]", "result": "8280 nM (inactive)"}, {"measurement": "GI50", "setting": "[10]", "result": "2050 nM (inactive)"}, {"measurement": "GI50", "setting": "[11]", "result": "23.9 nM (active)"}, {"measurement": "GI50", "setting": "[12]", "result": "1300 nM (inactive)"}, {"measurement": "GI50", "setting": "[13]", "result": "409 nM (active)"}, {"measurement": "GI50", "setting": "[14]", "result": "519 nM (active)"}, {"measurement": "GI50", "setting": "[15]", "result": "1.87 nM (active)"}, {"measurement": "GI50", "setting": "[16]", "result": "< 5 nM (active)"}, {"measurement": "GI50", "setting": "[17]", "result": "1600 nM (inactive)"}, {"measurement": "GI50", "setting": "[18]", "result": "2440 nM (inactive)"}, {"measurement": "GI50", "setting": "[19]", "result": "17.2 nM (active)"}, {"measurement": "GI50", "setting": "[20]", "result": "1380 nM (inactive)"}, {"measurement": "GI50", "setting": "[21]", "result": "28.4 nM (active)"}, {"measurement": "GI50", "setting": "[22]", "result": "592 nM (active)"}, {"measurement": "GI50", "setting": "[23]", "result": "7.5 nM (active)"}, {"measurement": "GI50", "setting": "[24]", "result": "713 nM (active)"}, {"measurement": "GI50", "setting": "[25]", "result": 5, "unit": "nM"}, {"measurement": "GI50", "setting": "[26]", "result": "< 5 nM (active)"}, {"measurement": "GI50", "setting": "[27]", "result": "5 nM (active)"}, {"measurement": "GI50", "setting": "[28]", "result": "> 10000 nM (inactive)"}, {"measurement": "GI50", "setting": "[29]", "result": "220 nM (active)"}, {"measurement": "GI50", "setting": "[30]", "result": "7820 nM (inactive)"}, {"measurement": "GI50", "setting": "[31]", "result": "593 nM (active)"}, {"measurement": "GI50", "setting": "[32]", "result": "90.6 nM (active)"}, {"measurement": "GI50", "setting": "[33]", "result": "< 10 nM (active)"}, {"measurement": "GI50", "setting": "[34]", "result": "2.3 nM (active)"}, {"measurement": "GI50", "setting": "[35]", "result": "< 5 nM (active)"}, {"measurement": "GI50", "setting": "[36]", "result": "447 nM (active)"}, {"measurement": "GI50", "setting": "[37]", "result": "< 5 nM (active)"}, {"measurement": "GI50", "setting": "[38]", "result": "2610 nM (inactive)"}, {"measurement": "GI50", "setting": "[39]", "result": "502 nM (active)"}, {"measurement": "GI50", "setting": "[40]", "result": "50.7 nM (active)"}, {"measurement": "GI50", "setting": "[41]", "result": "7.91 nM (active)"}, {"measurement": "GI50", "setting": "[42]", "result": "17.3 nM (active)"}, {"measurement": "GI50", "setting": "[43]", "result": "5110 nM (inactive)"}, {"measurement": "GI50", "setting": "[44]", "result": "5 nM (active)"}, {"measurement": "GI50", "setting": "[45]", "result": "51 nM (active)"}, {"measurement": "GI50", "setting": "[46]", "result": "2.96 nM (active)"}, {"measurement": "GI50", "setting": "[47]", "result": "2390 nM (inactive)"}, {"measurement": "GI50", "setting": "[48]", "result": "1930 nM (inactive)"}, {"measurement": "GI50", "setting": "[49]", "result": "279 nM (active)"}, {"measurement": "GI50", "setting": "[50]", "result": "3360 nM (inactive)"}, {"measurement": "GI50", "setting": "[51]", "result": "12.7 nM (active)"}, {"measurement": "GI50", "setting": "[52]", "result": "3050 nM (inactive)"}, {"measurement": "GI50", "setting": "[53]", "result": "2190 nM (inactive)"}, {"measurement": "GI50", "setting": "[54]", "result": "571 nM (active)"}, {"measurement": "GI50", "setting": "[55]", "result": "218 nM (active)"}, {"measurement": "GI50", "setting": "[56]", "result": "5.77 nM (active)"}, {"measurement": "GI50", "setting": "[57]", "result": "555 nM (active)"}, {"measurement": "GI50", "setting": "[58]", "result": "5 nM (active)"}, {"measurement": "GI50", "setting": "[59]", "result": "58.6 nM (active)"}]}
